From patent US20230263807A1, “TREPROSTINIL ILOPROST COMBINATION THERAPY” (United Therapeutics Corporation, priority 2022, published 2023)
Read-outs that look alike come from different tables or passages of the source.

Experimental: The solubility of iloprost at 100 μg/mL was evaluated at five different pH levels by visual inspection and HPLC-UV analysis. A stock solution of Iloprost was prepared in ethanol at 1 mg/mL. The stock solution was diluted 10-fold in each buffer and mixed well. The buffered solutions were visually inspected for any precipitation. The buffered solutions were filtered with 0.45 μm nylon filters prior to analysis by HPLC.

CC#CCC(C)[C@H](O)/C=C/[C@@H]1[C@H]2C/C(=C/CCCC(=O)O)C[C@H]2C[C@H]1O (stereo partly shown) [Iloprost]
Final pH (100 μg/mL Iloprost in 10 mM Acetate, initial pH 5.00): 5.08
Final pH (100 μg/mL Iloprost in 10 mM Citrate, initial pH 2.89): 2.99
Final pH (100 μg/mL Iloprost in 10 mM Phosphate, initial pH 6.23): 6.36
Final pH (100 μg/mL Iloprost in 10 mM Phosphate, initial pH 7.27): 7.42
Final pH (100 μg/mL Iloprost in 10 mM Phosphate, initial pH 8.60): 8.59
solubility by chromatographic analysis (pH 2.89): potential solubility issues below pH 6
visual solubility (pH 2.89): No visual solubility issues
